The nature of the assay: Compound was tested for inhibition of hydrogen peroxide toxicity against human skin fibroblasts. In kind it is functional.

`CCCCCCCOc1c(OC)cc(CN(CCN(CC(=O)O)Cc2cc(OC)c(OCCCCCCC)c(OC)c2)CC(=O)O)cc1OC`: the IC50 came to 50 µM.
In turn, `COc1cc(CN(CCN(CC(=O)OCOC(C)=O)Cc2cc(OC)c(OC)c(OC)c2)CC(=O)OCOC(C)=O)cc(OC)c1OC` yielded an IC50 of 3 µM. Compared with the last molecule, the IC50 is about 17-fold lower.

By IC50 is commonly meant the concentration that inhibits the measured activity by half. Low values mean inhibition by little substance, high ones a need for much substance.

Values taken from ChEMBL document CHEMBL1133001, “Protection against oxidative damage by iron chelators: effect of lipophilic analogues and prodrugs of N,N'-bis(3,4,5-trimethoxybenzyl)ethylenediamine- N,N'-diacetic acid (OR10141)” (J Med Chem, 2000).
